“Also recorded” adds a separate entry of the source.
Tests used:
CD4 T cells [1] = experiment: Mac-CD4 T co-culture, surface marker modulation on T cells; assay type: cell-based, human; conditions: T cells co-cultured with β-glucan-treated vs vehicle-treated M2 macrophages
Procedure: For evaluation of Mac-CD4 T cell surface marker modulation, M2 macrophages were co-cultured with T cells as described above and cells were harvested on day 8, day 9 and day 10 to perform surface receptor staining on both M2 macrophages and T cells.
Changes in surface marker expression on both macrophages and CD3 & CD28-stimulated T cells were also measured. Vehicle- and β-glucan-treated M2 macrophages and CD T cells from the co-cultures were evaluated by flow cytometry for the modulation of co-stimulatory or co-inhibitory molecules. FIG. 8C and Table 9 are representative results from 2 different experiments.

CD4 T cells [2] = experiment: Mac-CD4 T cell proliferation assay (CFSE dilution); assay type: cell-based, human
IFN-γ = IFN-γ in supernatants of macrophage and CD4 T cell co-cultures (ELISA); assay type: cell-based, human
Procedure: CD14^+ monocytes from human whole blood were enriched using Ficoll gradient and magnetic bead separation. Enriched monocytes (5×10^5 cells per mL) were then cultured in either M1-polarizing (XVivo 10 media (Lonza Group) supplemented with 5% autologous serum and 100 ng/mL recombinant human granulocyte macrophage colony-stimulating factor (rhGM-CSF) (R&D Systems) or M2-polarizing (XVivo 10 media supplemented with 10% autologous serum and 50 ng/mL recombinant human macrophage colony-stimulating factor (rhM-CSF) (R&D Systems) conditions for 6 days. In experiments performed to evaluate the effect of β-glucan, whole blood was first incubated with vehicle (sodium citrate buffer) or 25 μg/mL soluble β-glucan for 2 hours at 37° C. and then the monocytes were isolated and differentiated. Morphology was checked before macrophages were harvested for phenotypic analysis. Culture medium of the day 6 macrophage culture (MCM) was collected, spun down to remove contaminated cell pellet and then frozen down for subsequent cytokine analysis by ELISA or used to setup a co-culture with CD3 & CD28-stimulated CD4 T cells (MCM-CD4 T) for evaluation of either surface markers or CD4 T cell proliferation. The macrophages were used to setup a co-culture with CD3 & CD28- or CD3 only-stimulated CD4 T cells (Mac-CD4 T) on day 6 for evaluation of either surface marker modulation or effect on CD4 T cell proliferation. For Mac-CD4 T cell proliferation study, M1 or M2 macrophages were cultured with CD3 & CD28- or CD3 only-stimulated, CFSE-labeled, autologous CD4 T cells at a 1:10 ratio. T cell proliferation was measured at the end of the experiment (day 9-day 11) by flow cytometry, and results are graphically shown as CFSE-dilution peaks. The assessment of CD3-only stimulated T cells was always done on day 11. Quantitative results were reported as the Division Index (the average number of cell divisions a population underwent) calculated for each of the triplicate wells in each of the culture conditions. Culture supernatants of Mac-CD4 T cell co-cultures were collected for subsequent cytokine analysis.
The culture supernatants from the CFSE dilution T-cell proliferation assay (FIG. 2B) were also measured for IFN-gamma levels by ELISA. […] Thus, β-glucan affects M2 to M1 repolarization and drives anti-tumorigenic Th1 polarization.
M2 macrophages from 4 high binders and 4 low binders were prepared and evaluated for their ability to modulate CD4 T cell proliferation. The supernatants from the various CD4 T cell proliferation conditions were measured for IFN-γ by ELISA. Results shown in FIG. 10 are representative from 4 different experiments. Fold change over the IFN-γ levels produced in the co-cultures of vehicle-treated M2 macrophages and CD4 T cells are plotted for each of the 4 donors.

IL-4 = IL-4 in supernatants of macrophage and CD4 T cell co-cultures; assay type: cell-based, human; conditions: M2 macrophage and CD4 T cell co-cultures
Procedure: CD14^+ monocytes from human whole blood were enriched using Ficoll gradient and magnetic bead separation. Enriched monocytes (5×10^5 cells per mL) were then cultured in either M1-polarizing (XVivo 10 media (Lonza Group) supplemented with 5% autologous serum and 100 ng/mL recombinant human granulocyte macrophage colony-stimulating factor (rhGM-CSF) (R&D Systems) or M2-polarizing (XVivo 10 media supplemented with 10% autologous serum and 50 ng/mL recombinant human macrophage colony-stimulating factor (rhM-CSF) (R&D Systems) conditions for 6 days. In experiments performed to evaluate the effect of β-glucan, whole blood was first incubated with vehicle (sodium citrate buffer) or 25 μg/mL soluble β-glucan for 2 hours at 37° C. and then the monocytes were isolated and differentiated. Morphology was checked before macrophages were harvested for phenotypic analysis. […] T cell proliferation was measured at the end of the experiment (day 9-day 11) by flow cytometry, and results are graphically shown as CFSE-dilution peaks. […] Quantitative results were reported as the Division Index (the average number of cell divisions a population underwent) calculated for each of the triplicate wells in each of the culture conditions. […]
Modulation of IFN-γ and IL-4 production of vehicle- and β-glucan-treated M2 macrophages was then evaluated. […]

CD4 T cells [3] = experiment: MCM-CD4 T cell proliferation and surface marker study; assay type: cell-based, human
Procedure: For MCM-CD4 T cell proliferation study, CD3 & CD28-stimulated, CFSE-labeled CD4 T cells were cultured with 50% MCM. T cell proliferation was measured on day 11 as described above. Culture supernatants of the MCM-CD4 T cell co-culture were collected for subsequent cytokine analysis. MCM-CD4 T cell surface marker evaluation was performed as described above.
To determine whether soluble factors secreted from β-glucan-treated M2 macrophages are required, measurements were carried out of CD4 T cell proliferation co-cultured with β-glucan-treated M2 macrophages MCM (50% of volume) and surface activation marker modulation on T cells incubated with the MCM were observed. FIG. 9 is representative of 2 different experiments. […] In addition, the CD4 T cells cultured in vehicle- and β-glucan-treated M2 macrophage MCM were evaluated for modulation of co-stimulatory or co-inhibitory molecules (CD80, CD28, CTLA-4, 4-1BB and PD-1).
(§1) To test this, M2 macrophages were prepared as described above with a few modifications. The whole blood of a low binder was spun down to remove the plasma and then the cells were reconstituted with serum obtained from a high binder. The reconstituted blood was treated with vehicle or β-glucan (25 μg/mL) for 2 hours at 37° C. The monocytes were evaluated for binding by using anti-β-glucan specific monoclonal antibody and subsequent flow cytometry.

CD4 and CD8 T cells = experiment: Allogeneic mixed lymphocyte reaction with mMoDC; assay type: cell-based, human; conditions: β-glucan-treated mMoDC from high binders
Monocytes = experiment: Binding of β-glucan to monocytes in whole blood (serum cross-over); assay type: cell-based, human; conditions: low binder's whole blood with high binder's serum (higher ABA)
Procedure: as §1

CD33+ MDSC = experiment: MDSC in peripheral blood of a case study subject treated with IMPRIME PGG; assay type: in vivo, human; conditions: within hours post-infusion, cycle 8, day 1
From the text: Blood was drawn at various times from a case study subject undergoing treatment with IMPRIME PGG and analyzed for the presence of MDSC. The first blood draw was done pre-infusion, cycle 8, day 1. […] A second blood draw was done post-infusion, cycle 8, day 1. […] The last blood sample was drawn pre-infusion, cycle 8, day 15. The CD33^+ MDSC are again present in the peripheral blood.

Substance: β(1,6)-[poly-(1,3)-D-glucopyranosyl]-poly-β(1,3)-D-glucopyranose [β-glucan]
- Change in MFI on T cells: 4-1BB (CD4 T cells [1]): No change
- Change in MFI on T cells: CD28 (CD4 T cells [1]): No change
- Change in MFI on T cells: CD40L (CD4 T cells [1]): No change
- Change in MFI on T cells: CTLA-4 (CD4 T cells [1]): No change
- Change in MFI on T cells: PD1 (CD279) (CD4 T cells [1]; day 9): Increased expression; also recorded: Increase
- CD4 T cell proliferation (CD4 T cells [2]; M1 macrophages, high binders or low binders, vs vehicle): no differences
- CD4 T cell proliferation (CD4 T cells [2]; M2 macrophages cultured in TCM and M2a macrophages cultured in IL-4, vs vehicle): maintained the ability to enhance
- CD4 T cell proliferation (CD4 T cells [2]; M2 macrophages, absence of exogenous CD28 antibody (CD3 only)): significantly higher ability to enhance
- CD4 T cell proliferation (CD4 T cells [2]; M2 macrophages, high binders, CD3 & CD28-stimulated, vs vehicle): significantly higher ability to enhance
- CD4 T cell proliferation (CD4 T cells [2]; M2 macrophages, low binders, vs vehicle): neither enhanced CD4 T cell proliferation; also recorded: no enhanced proliferation
- CD4 T cell proliferation (CD4 T cells [2]; co-culture with β-glucan-treated M2 macrophages, CD3 and CD28-stimulated): enhance CD4 T cell proliferation
- production of IFN-γ (IFN-γ; M2 in TCM / M2a in IL-4 co-cultured with CD4 T cells): significantly increased production
- production of IFN-γ (IFN-γ; M2 macrophage and CD4 T cell co-cultures, high binders): significantly increased production
- production of IFN-γ (IFN-γ; M2 macrophages and CD4 T cells, cell-to-cell contact study): significantly increased production
- production of IFN-γ (IFN-γ; low binder crossed-over with high binder's serum): significantly increased production
- IFN-gamma production (IFN-γ; supernatants of M2 macrophage and CD4 T cell co-culture): concomitant increase
- production of IL-4 (IL-4): no change
- T cell markers (CD80, CD28, CTLA-4, 4-1BB and PD-1) (CD4 T cells [3]; CD4 T cells cultured in M2 macrophage MCM (data not shown)): no change
- CD4 T cell proliferation (CD4 T cells [3]; MCM of M2 macrophages of a low binder crossed-over with high binder's serum, vs vehicle): significantly higher ability to enhance
- CD4 T cell proliferation (CD4 T cells [3]; β-glucan-treated M2 macrophage MCM (50% of volume) vs vehicle MCM): significantly higher ability to enhance
- immunogenicity in allo-MLR (CD4 and CD8 T cell expansion) (CD4 and CD8 T cells; over low binders): increased immunogenicity
- IFN-γ production (CD4 and CD8 T cells; over low binders and vehicle): able to modulate IFN-γ production
- binding of β-glucan to monocytes (Monocytes): significantly higher binding
- CD33+ MDSC in peripheral blood (CD33+ MDSC): transiently disappear
